According to patent US20220306695A1, “COMPSTATIN ANALOGUES AND THEIR MEDICAL USES” (priority 2019, published 2022):
Read-outs that look alike come from different tables or passages of the source. Starred links: 1 amine or outer side, 2 acyl side, 3 side chain; linkers in the order of their positions; H or OH if unused. Positions of bridges follow the written chain, without caps; N, C: chain ends. Non-standard residues stand in square brackets, D forms with d. Residues, ends and D or L forms follow the SMILES beside them. Groups on a side chain read outwards from the residue. *: point of attachment. Trp(1-Me) = Cn1cc(C[C@H](N)C(=O)O)c2ccccc21; C18 diacid = O=C(O)CCCCCCCCCCCCCCCCC(=O)*; γGlu = O=C(O)[C@H](CCC(=O)[*:2])N[*:1]; AEEA = NCCOCCOCC(=O)O; Sar = CNCC(=O)O

Experiments:
[1] = tested on: classical complement pathway; assay: In vitro haemolysis assay (inhibition of classical complement pathway); format: cell-based, human; settings: Table 3; human serum, sensitized sheep red blood cells; read-out: IC50[nM], in vitro analysis of inhibition of hemolysis
Method in brief: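 Serially diluted compound (9 points) was preincubated 15 min at room temperature with diluted human serum, titrated per batch to give 70-90% maximal haemolysis, in Tris/casein buffer pH 7.4 with Mg2+/Ca2+. Antibody-sensitized sheep erythrocytes were then added for 30 min at 37° C, and the reaction was stopped with EDTA. Haemolysis was read at A405, with IC50 from 4PL fit.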

Human C3 = biological target: T1, Human C3 (Homo sapiens, UniProt P01024); assay: Affinity measurement by surface plasmon resonance (SPR) with immobilized C3; format: binding; settings: Table 7; immobilized C3, 25° C., pH 7.4
T1 construct: purchased Complement tech A1 13c (so in the source)

in vivo = assay: in vivo; design: species or system Cynomolgus monkeys (Macaca fascicularis); settings: male, cynomolgus monkey, sc, 1840 nmol/kg, t½
Method in brief: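 Healthy male cynomolgus monkeys dosed once subcutaneously at 1840 nmol/kg in 20 mM phosphate pH 7.5 with mannitol. Serum sampled pre-dose to 120 h and total drug measured by SPE and LC-MS/MS. Terminal half-life calculated non-compartmentally as ln(2)/λz from the terminal log-linear phase.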

[2] = Solubility test at 10 mg/mL (visual inspection and light scattering); format: physicochemical
[3] = format: physicochemical; settings: 50 mg/mL peptide
Procedure: Chemical stability of compstatin analogues with cystathionine or disulfide bridge. Stability was assessed in three formulations at 50 mg/mL peptide, F1:20 mM phosphate pH 5.5, F2:20 mM phosphate pH 6.5 and F3:20 mM phosphate pH 7.5. The formulations were prepared by direct dissolution of peptide from lyophilized portions in the respective formulations. pH was adjusted to target with 1 M NaOH and 1 M HCl. Chemical stability was assessed under accelerated conditions (14 days, 40° C.) and evaluated as change in purity by reverse phase HPLC, and change in covalent oligomer content by denaturing SEC. The formulations were placed at 40° C. with analysis points at T=0, 7 and 14 days. On each time point a small volume was extracted and diluted to 2 mg/mL and tested by reverse phase HPLC and denaturing SEC. Purity was assessed by reverse phase HPLC using an Ultimate 3000 system for binary gradient application equipped with a Kinetix C18 column (cat. no. 00F-4462-Y0, 150 mm×3 mm, 2.6 μm) run at 0.5 ml/min with a gradient of buffer A (0.3% TFA, aq.) and buffer B (0.3% TFA, 90% MeCN, aq.) gradient from 40% B to 70% B over 20 min. Detection was done using a diode array detector set to 220 nm. Covalent oligomer formation was assessed by denaturing SEC (size exclusion chromatography) using an Ultimate 3000 system equipped with a TSKgel SuperSW 2000 column (cat. no. 818674, 300 mm×3 mm, 4 μm) run at 0.5 ml/min with isocratic flow of buffer A (0.1% TFA, 45% MeCN, aq.), 10 min. Detection was done using a diode array detector set to 215 nm. Compounds 126 and 156 were carefully weighed out and dissolved in formulations F1, F2 and F3 to a target concentration of 50 mg/mL. Once visually dissolved, concentration was confirmed by absorbance at 280 nm, and samples were placed in stability at 40° C. Samples for analysis were extracted on T=0, 7 and 14 days from a 40° C. climate chamber. The extracted volume was dissolved 1:25 (final concentration: 2 mg/mL) in 20 mM phosphate pH 5.5, 6.5 or 7.5 and measured by reverse phase HPLC and denaturing SEC by injection of 0.4 μL (column load […]). The resulting chromatograms were integrated to determine chemical purity by reverse phase HPLC and covalent oligomer content by denaturing SEC.

Structure (SMILES)	IC50 [1] [nM]	Kd (Human C3) [nM]	half-life (in vivo) [h]	Solubility, Condition 1 Acetate pH 4 ([2]; 10 mg/mL compound in 100 mM acetate pH 4)	Solubility, Condition 2 Acetate pH 5 ([2]; 10 mg/mL compound in 100 mM acetate pH 5)	Solubility, Condition 3 Phosphate pH 6 ([2]; 10 mg/mL compound in 100 mM phosphate pH 6)	Solubility, Condition 4 Phosphate pH 7 ([2]; 10 mg/mL compound in 100 mM phosphate pH 7)	Solubility, Condition 5 Phosphate pH 7.5 ([2]; 10 mg/mL compound in 100 mM phosphate pH 7.5)	Covalent oligomer content after 14 days 40° C. (%), F1 ([3]; F1: 20 mM phosphate pH 5.5, denaturing SEC) [%]	Purity after 14 days 40° C. (%), F1 ([3]; F1: 20 mM phosphate pH 5.5, normalized purity (HPLC)) [%]	Covalent oligomer content after 14 days 40° C. (%), F2 ([3]; F2: 20 mM phosphate pH 6.5, denaturing SEC) [%]	Purity after 14 days 40° C. (%), F2 ([3]; F2: 20 mM phosphate pH 6.5, normalized purity (HPLC)) [%]	Covalent oligomer content after 14 days 40° C. (%), F2 ([3]; F3: 20 mM phosphate pH 7.5, denaturing SEC) [%]	Purity after 14 days 40° C. (%), F3 ([3]; F3: 20 mM phosphate pH 7.5, normalized purity (HPLC)) [%]
CC[C@H](C)[C@@H]1NC(=O)[C@@H](NC(=O)[C@H](Cc2ccc(O)cc2)NC(=O)[C@H](C)NC(=O)[C@H](CO)NC(C)=O)CSSC[C@@H](C(=O)N(C)CC(=O)N[C@@H](CCC(=O)O)C(=O)N[C@@H](CCCCNC(=O)CC[C@H](NC(=O)CNC(=O)CC[C@H](NC(=O)CCCCCCCCCCCCCCCCC(=O)O)C(=O)O)C(=O)O)C(N)=O)NC(=O)[C@H](CCCNC(=N)N)NC(=O)[C@H](Cc2c[nH]cn2)NC(=O)[C@H](CCC(=O)O)NC(=O)CNC(=O)[C@H](Cc2c[nH]c3ccccc23)NC(=O)[C@H](CC(=O)O)NC(=O)[C@H](CCC(N)=O)NC(=O)[C@H](Cc2cn(C)c3ccccc23)NC1=O [Compound 106] (Ac-SAYCI[Trp(1-Me)]QDWGEHRC[Sar]EK([γGlu-Gly-γGlu-C18 diacid])-NH2; disulfide 4-14)	< 250	5.4	93.9	–	–	–	–	–	–	–	–	–	–	–
CC[C@H](C)[C@@H]1NC(=O)[C@@H](NC(=O)[C@H](Cc2ccc(O)cc2)NC(=O)[C@H](C)NC(=O)[C@H](CO)NC(=O)CNC(=O)[C@H](CCC(=O)O)NC(C)=O)CSSC[C@@H](C(=O)N(C)CC(=O)N[C@@H](CCC(=O)O)C(=O)N[C@@H](CCCCN)C(=O)N[C@@H](CCC(=O)N[C@@H](CCCCNC(=O)COCCOCCNC(=O)COCCOCCNC(=O)CC[C@H](NC(=O)CCCCCCCCCCCCCCCCC(=O)O)C(=O)O)C(N)=O)C(=O)O)NC(=O)[C@H](CCCNC(=N)N)NC(=O)[C@H](Cc2c[nH]cn2)NC(=O)[C@H](CCC(=O)O)NC(=O)CNC(=O)[C@H](Cc2c[nH]c3ccccc23)NC(=O)[C@H](CC(=O)O)NC(=O)[C@H](CCC(N)=O)NC(=O)[C@H](Cc2cn(C)c3ccccc23)NC1=O [Compound 111] (Ac-EGSAYCI[Trp(1-Me)]QDWGEHRC[Sar]EK[γGlu]K([AEEA-AEEA-γGlu-C18 diacid])-NH2; disulfide 6-16)	< 100	–	157	− (denotes lack of solubility at the given condition, as UV absorbance at 340 nm exceeds 0.1 AU and/or it is visibly turbid or contains particles.)	− (denotes lack of solubility at the given condition, as UV absorbance at 340 nm exceeds 0.1 AU and/or it is visibly turbid or contains particles.)	+ (denotes solubility at the given condition, as determined by UV absorbance being less than 0.1 AU at 340 nm and the sample being clear when manually inspected.)	+ (denotes solubility at the given condition, as determined by UV absorbance being less than 0.1 AU at 340 nm and the sample being clear when manually inspected.)	+ (denotes solubility at the given condition, as determined by UV absorbance being less than 0.1 AU at 340 nm and the sample being clear when manually inspected.)	30	80	77	24	61	33
